Laboratory results published in ChEMBL document CHEMBL5579894, “Antimicrobial Dihydroflavonols and Isoflavans Isolated from the Root Bark of Dalbergia gloveri” (2024).
Values after ≈ are worked out from the molar mass of the structure shown.

What was measured:
Assay type in all cases: functional
Staphylococcus aureus = assay: Antibacterial activity against Staphylococcus aureus assessed as reduction in microbial growth incubated for 24 hrs by microdilution method
Escherichia coli = assay: Antibacterial activity against Escherichia coli assessed as reduction in microbial growth incubated for 24 hrs by microdilution method
Candida albicans = assay: Antifungal activity against Candida albicans assessed as reduction in fungal growth incubated for 24 hrs by microdilution method

Structure (SMILES)	MIC (Staphylococcus aureus) [µM]	MIC (Escherichia coli) [µM]	MIC (Candida albicans) [µM]
C=C(CO)[C@H]1Cc2c(ccc3c(=O)c4c(oc23)COc2cc(OC)c(OC)cc2-4)O1	612	> 1000	> 1000
CC(C)=CCC[C@]1(C)C=Cc2c(ccc3c2O[C@H](c2ccc(O)c(O)c2)[C@@H](O)C3=O)O1	36.9	> 1000	74.1 (≈ 31.3 µg/mL)
COc1ccc(C2COc3c(ccc4c3C=CC(C)(CCC=C(C)C)O4)C2)c(O)c1O (configuration not stated)	36.9	296	36.9 (≈ 15.6 µg/mL)
CC(C)=CCC/C(C)=C/Cc1c(O)ccc2c(=O)c(O)c(-c3ccc(O)c(O)c3)oc12	> 1000	> 1000	> 1000
CC(=O)O[C@H]1CC[C@]2(C)[C@H]3CC=C4[C@@H]5CC(C)(C)CC[C@]5(C(=O)O)CC[C@@]4(C)[C@]3(C)CC[C@H]2C1(C)C [ACETYL OLEANOLIC ACID]	251	> 1000	251 (≈ 125 µg/mL)
C=C(CO)[C@H]1Cc2c(ccc3c2O[C@@H]2COc4cc(OC)c(OC)cc4[C@]2(O)C3=O)O1 [DABINOL]	293	> 1000	147 (≈ 62.5 µg/mL)
O=C(/C=C/c1ccc(O)cc1)c1ccc(O)cc1O [ISOLIQUIRITIGENIN]	488	> 1000	> 1000
CC(C)=CCCC1(C)C=Cc2c(ccc(C(=O)/C=C/c3ccc(O)cc3)c2O)O1 (configuration not stated) [LESPEOL]	40	64	40 (≈ 15.6 µg/mL)

More lines, in order of falling MIC (Staphylococcus aureus), values ahead:

MIC (Staphylococcus aureus) [µM]	MIC (Escherichia coli) [µM]	MIC (Candida albicans) [µM]	Structure (SMILES)
36.7	294	73.7 (≈ 31.3 µg/mL)	COc1ccc([C@@H]2COc3c(ccc(O)c3C/C=C(\C)CCC=C(C)C)C2)c(O)c1O
36.7	294	73.7 (≈ 31.3 µg/mL)	CC(C)=CCC/C(C)=C/Cc1cc([C@H]2Oc3cc(O)ccc3C(=O)[C@@H]2O)cc(O)c1O
18.4	> 1000	73.7 (≈ 31.3 µg/mL)	C=C[C@@](C)(CCC=C(C)C)c1cc([C@@H]2COc3cc(O)ccc3C2)c(O)c(O)c1OC
14.2	> 1000	56.9 (≈ 15.6 µg/mL)	O=C(CC(O)c1ccc(O)cc1)c1ccc(O)cc1O (configuration not stated)
9.2	296	74.1 (≈ 31.3 µg/mL)	CC(C)=CCC[C@]1(C)C=Cc2cc([C@H]3Oc4cc(O)ccc4C(=O)[C@@H]3O)cc(O)c2O1
0.5	0.5	0.5 (≈ 0.275 µg/mL)	CCCCCCCCN=c1ccn(CCCCCCCCCCn2ccc(=NCCCCCCCC)cc2)cc1 [OCTENIDINE]
